Source: ChEMBL document CHEMBL4382242, “Novel racemosin B derivatives as new therapeutic agents for aggressive breast cancer” (Bioorg Med Chem, 2018)
Active and inactive are the calls of the source. The calls are words filed in the database; no cut-off is given here.

Experiments:
[1] = system: MCF7; test: Growth inhibition of human MCF7 cells after 72 hrs by MTT assay; type: functional, cell-based; details: MCF7, 72 h
[2] = system: MDA-MB-231; test: Growth inhibition of human MDA-MB-231 cells after 72 hrs by MTT assay; type: functional, cell-based; details: MDA-MB-231, 72 h
[3] = system: MDA-MB-231; test: Induction of apoptosis in human MDA-MB-231 cells assessed as late apoptotic cells at 5 uM after 48 hrs by Annexin V-FITC/propidium iodide staining based flow cytometry (reference value: 6.5%); type: functional
[4] = system: MDA-MB-231; test: Cell cycle arrest in human MDA-MB-231 cells assessed as accumulation at G1 phase at 5 uM after 48 hrs by propidium iodide staining based flow cytometry (reference value: 3.19%); type: functional
[5] = system: MDA-MB-231; test: Induction of apoptosis in human MDA-MB-231 cells assessed as increase in Bax protein expression at 5 uM after 16 hrs by Western blot analysis; type: functional, cell-based
[6] = system: MDA-MB-231; test: Growth inhibition of human MDA-MB-231 cells at 1 to 5 uM after 72 hrs by MTT assay; type: functional, cell-based
[7] = system: MDA-MB-231; test: Cell cycle arrest in human MDA-MB-231 cells assessed as accumulation at G2/M phase at 5 uM after 24 hrs by propidium iodide staining based flow cytometry (reference value: 18.5%); type: functional
[8] = system: MDA-MB-231; test: Induction of apoptosis in human MDA-MB-231 cells assessed as early apoptotic cells at 5 uM after 48 hrs by Annexin V-FITC/propidium iodide staining based flow cytometry (reference value: 5.3%); type: functional
[9] = system: MDA-MB-231; test: Induction of apoptosis in human MDA-MB-231 cells assessed as early apoptotic cells at 5 uM after 24 hrs by Annexin V-FITC/propidium iodide staining based flow cytometry (reference value: 3.7%); type: functional
[10] = system: K562; test: Growth inhibition of human K562 cells after 72 hrs by MTT assay; type: functional, cell-based; details: K562, 72 h
[11] = system: MDA-MB-231; test: Cell cycle arrest in human MDA-MB-231 cells assessed as accumulation at G1 phase at 5 uM after 24 hrs by propidium iodide staining based flow cytometry (reference value: 47.9%); type: functional
[12] = Growth inhibition of human WM35 cells after 72 hrs by MTT assay; type: functional; details: WM35, 72 h
[13] = system: MDA-MB-231; test: Inhibition of autophagy in human MDA-MB-231 cells assessed as LC3-2 accumulation at 5 uM after 16 hrs by DAPI staining based immunofluorescence assay; type: functional, cell-based
[14] = system: MDA-MB-231; test: Induction of apoptosis in human MDA-MB-231 cells assessed as decrease in Bcl2 protein expression at 5 uM after 16 hrs by Western blot analysis; type: functional, cell-based
[15] = system: MDA-MB-231; test: Cell cycle arrest in human MDA-MB-231 cells assessed as accumulation at S phase at 5 uM after 24 hrs by propidium iodide staining based flow cytometry (reference value: 29.76%); type: functional
[16] = system: MDA-MB-231; test: Induction of apoptosis in human MDA-MB-231 cells assessed as necrotic cells at 5 uM after 24 hrs by Annexin V-FITC/propidium iodide staining based flow cytometry (reference value: 0.7%); type: functional
[17] = system: MDA-MB-231; test: Induction of apoptosis in human MDA-MB-231 cells assessed as necrotic cells at 5 uM after 48 hrs by Annexin V-FITC/propidium iodide staining based flow cytometry (reference value: 0.7%); type: functional
[18] = system: MDA-MB-231; test: Induction of apoptosis in human MDA-MB-231 cells assessed as live cells at 5 uM after 48 hrs by Annexin V-FITC/propidium iodide staining based flow cytometry (reference value: 87.6%); type: functional
[19] = system: MDA-MB-231; test: Cell cycle arrest in human MDA-MB-231 cells assessed as accumulation at S phase at 5 uM after 48 hrs by propidium iodide staining based flow cytometry (reference value: 31.71%); type: functional
[20] = Growth inhibition of human WM9 cells after 72 hrs by MTT assay; type: functional; details: WM9, 72 h
[21] = system: MDA-MB-231; test: Induction of apoptosis in human MDA-MB-231 cells assessed as live cells at 5 uM after 24 hrs by Annexin V-FITC/propidium iodide staining based flow cytometry (reference value: 90.8%); type: functional
[22] = biological target: Serine/threonine-protein kinase mTOR (Homo sapiens) (UniProt P42345); test: Inhibition of mTOR phosphorylation in human MDA-MB-231 cells at 5 uM after 16 hrs by Western blot analysis; type: cell-based
[23] = system: HEL; test: Growth inhibition of HEL cells after 72 hrs by MTT assay; type: functional, cell-based; details: Homo sapiens
[24] = system: MDA-MB-231; test: Induction of morphological changes in human MDA-MB-231 cells assessed as large vacuole formation at 5 uM after 24 hrs; type: functional, cell-based
[25] = system: MDA-MB-231; test: Induction of apoptosis in human MDA-MB-231 cells assessed as increase in Cyclin-B1 protein expression at 5 uM after 16 hrs by Western blot analysis; type: functional, cell-based
[26] = system: MDA-MB-231; test: Inhibition of autophagy in human MDA-MB-231 cells assessed as increase in p62 protein expression at 5 uM after 16 hrs by Western blot analysis; type: functional, cell-based
[27] = system: 4T1; test: Growth inhibition of mouse 4T1 cells after 72 hrs by MTT assay; type: functional, cell-based; details: 4T1, 72 h
[28] = system: MDA-MB-231; test: Cell cycle arrest in human MDA-MB-231 cells assessed as accumulation at G2/M phase at 5 uM after 48 hrs by propidium iodide staining based flow cytometry (reference value: 17.79%); type: functional
[29] = system: MDA-MB-231; test: Induction of apoptosis in human MDA-MB-231 cells assessed as late apoptotic cells at 5 uM after 24 hrs by Annexin V-FITC/propidium iodide staining based flow cytometry (reference value: 4.8%); type: functional
[30] = system: MDA-MB-231; test: Induction of morphological changes in human MDA-MB-231 cells assessed as cell detachment at 5 uM after 24 hrs; type: functional, cell-based

In the case of `COC(=O)c1cc2c3ccccc3[nH]c2c2c1[nH]c1ccc(Br)cc12`, the IC50 [1] is reported as over 40 µM and the IC50 [2] is reported as over 40 µM.
In the case of `COC(=O)c1cc2c3ccccc3[nH]c2c2c1[nH]c1ccc(OC)cc12`, the IC50 [1] is reported as over 40 µM and the IC50 [2] is reported as over 40 µM.
In the case of `O=C(NCCc1c[nH]cn1)c1cc2c3ccccc3[nH]c2c2c1[nH]c1ccccc12`, the IC50 [1] is reported as 4.86 µM and the IC50 [2] is reported as 4.16 µM.
`O=C(NCc1ccncc1)c1cc2c3ccccc3[nH]c2c2c1[nH]c1ccccc12` showed an IC50 [1] of 8.08 µM and an IC50 [2] of 5.64 µM.
With `CN(C)CCNC(=O)c1cc2c3ccccc3[nH]c2c2c1[nH]c1ccccc12` the IC50 [1] was 3.39 µM and the IC50 [2] was 1.43 µM.
Work on `COC(=O)c1cc2c3ccccc3[nH]c2c2c1[nH]c1cc(Cl)ccc12` yielded an IC50 [1] of over 40 µM and an IC50 [2] of over 40 µM.
In the case of `CN(C)CCNC(=O)c1cc2c3ccccc3[nH]c2c2c1[nH]c1ccc(Br)cc12`, the Activity [3] is reported as 5.5%, the Activity [4] is reported as 48.65% and the Activity [5] is reported as “inactive”. For the same molecule, the “growth inhibition (GI)” value [6] was “Active”, the Activity [7] was 22.91% and the Activity [8] was 14.2%. For the same molecule, the Activity [9] was 10.8%, the IC50 [10] was 1.56 µM and the Activity [11] was 47.46%. The IC50 [12] was 3.81 µM, the inhibition [13] was “Active” and the Activity [14] was “inactive”. For the same molecule, the Activity [15] was 29.31%, the IC50 [1] was 2 µM and the Activity [16] was 2%. For the same molecule, the Activity [17] was 9.6%, the Activity [18] was 70.8% and the Activity [19] was 21.38%. For the same molecule, the IC50 [20] was 2.43 µM, the Activity [21] was 82.2% and the inhibition [22] was “Active”. The IC50 [23] was 3.63 µM, the Activity [24] was “Active” and the IC50 [2] was 1.06 µM. For the same molecule, the Activity [25] was “inactive”, the inhibition [26] was “Active” and the IC50 [27] was 2.77 µM. For the same molecule, the Activity [28] was 29.98% and the Activity [29] was 5%.
With `COc1ccc2[nH]c3c(C(=O)NCCN(C)C)cc4c5ccccc5[nH]c4c3c2c1` the IC50 [1] was 5.17 µM and the IC50 [2] was 2.74 µM.
Work on `O=C(NCCNCCO)c1cc2c3ccccc3[nH]c2c2c1[nH]c1ccccc12` yielded an IC50 [1] of 4.85 µM and an IC50 [2] of 2.05 µM.
`O=C(NCc1ccccn1)c1cc2c3ccccc3[nH]c2c2c1[nH]c1ccccc12` showed an IC50 [1] of 22.7 µM and an IC50 [2] of 7.92 µM.
With `CN(C)c1ccccc1NC(=O)c1cc2c3ccccc3[nH]c2c2c1[nH]c1ccccc12` the IC50 [1] was 10.8 µM and the IC50 [2] was 7.81 µM.
`CCN(CC)CCNC(=O)c1cc2c3ccccc3[nH]c2c2c1[nH]c1ccccc12` gave an IC50 [1] of 2.39 µM and an IC50 [2] of 1.71 µM.
`COC(=O)c1cc2c3ccccc3[nH]c2c2c1[nH]c1ccccc12` gave an IC50 [1] of over 40 µM and an IC50 [2] of over 40 µM.
Work on `CN(C)CCN(C)C(=O)c1cc2c3ccccc3[nH]c2c2c1[nH]c1ccccc12` yielded an IC50 [1] of 6.3 µM and an IC50 [2] of 2.93 µM.
Molecule `CN1CCC(NC(=O)c2cc3c4ccccc4[nH]c3c3c2[nH]c2ccccc23)CC1` has an IC50 [1] of 3.89 µM and an IC50 [2] of 1.62 µM.
Work on `CC(C)N(CCNC(=O)c1cc2c3ccccc3[nH]c2c2c1[nH]c1ccccc12)C(C)C` yielded an IC50 [1] of 3.12 µM and an IC50 [2] of 1.72 µM.
Work on `CN1CCN(CCNC(=O)c2cc3c4ccccc4[nH]c3c3c2[nH]c2ccccc23)CC1` yielded an IC50 [1] of 5.33 µM and an IC50 [2] of 2.1 µM.
For `COc1cc([C@@H]2c3cc4c(cc3[C@@H](O[C@@H]3O[C@@H]5CO[C@@H](C)O[C@H]5[C@H](O)[C@H]3O)[C@H]3COC(=O)[C@H]23)OCO4)cc(OC)c1O` [ETOPOSIDE], the Activity [3] was 8.8%, the Activity [4] was 8.57% and the Activity [5] was “Active”. For the same molecule, the “growth inhibition (GI)” value [6] was “Active”, the Activity [30] was “Active” and the Activity [7] was 63.98%. It also gave an Activity [8] of 5.5%, an Activity [9] of 4.6% and an IC50 [10] of 9.23 µM. For the same molecule, the Activity [11] was 7.59%, the IC50 [12] was 0.4 µM and the inhibition [13] was “inactive”. The Activity [14] was “Active”, the Activity [15] was 19.24% and the IC50 [1] was over 10 µM. It also gave an Activity [16] of 0.7%, an Activity [17] of 10.1% and an Activity [18] of 75.5%. The Activity [19] was 15.48%, the IC50 [20] was 1.75 µM and the Activity [21] was 90.7%. The inhibition [22] was “inactive”, the IC50 [23] was 0.92 µM and the IC50 [2] was over 10 µM. For the same molecule, the Activity [25] was “Active”, the inhibition [26] was “inactive” and the IC50 [27] was over 10 µM. For the same molecule, the Activity [28] was 70.43% and the Activity [29] was 4%.
For `O=C(NCCN1CCOCC1)c1cc2c3ccccc3[nH]c2c2c1[nH]c1ccccc12`, the IC50 [1] was 7.76 µM and the IC50 [2] was 4.4 µM.
In the case of `CN(C)CCNC(=O)c1cc2c3ccccc3[nH]c2c2c1[nH]c1cc(Cl)ccc12`, the IC50 [1] is reported as 8.03 µM and the IC50 [2] is reported as 4.51 µM.
In the case of `COc1ccc2[nH]c3c(C(=O)NCCN4CCCC4)cc4c5ccccc5[nH]c4c3c2c1`, the IC50 [1] is reported as 5.58 µM and the IC50 [2] is reported as 2.84 µM.
`CCN1CCCC1CNC(=O)c1cc2c3ccccc3[nH]c2c2c1[nH]c1ccccc12` (centres undefined) gave an IC50 [1] of 5.83 µM and an IC50 [2] of 3.53 µM.
`CN(C)c1ccc(NC(=O)c2cc3c4ccccc4[nH]c3c3c2[nH]c2ccccc23)cc1` gave an IC50 [1] of 16.4 µM and an IC50 [2] of 7.79 µM.
`O=C(NCc1cccnc1)c1cc2c3ccccc3[nH]c2c2c1[nH]c1ccccc12` gave an IC50 [1] of 9.8 µM and an IC50 [2] of 6.01 µM.
For `COc1cccc2c1C(=O)c1c(O)c3c(c(O)c1C2=O)C[C@@](O)(C(=O)CO)C[C@@H]3O[C@H]1C[C@H](N)[C@H](O)[C@H](C)O1` [DOXORUBICIN], the IC50 [1] was 0.42 µM and the IC50 [2] was 0.25 µM.
For `CN(C)CCCNC(=O)c1cc2c3ccccc3[nH]c2c2c1[nH]c1ccccc12`, the IC50 [1] was 3.7 µM and the IC50 [2] was 4.48 µM.
Molecule `O=C(NCCN1CCCC1)c1cc2c3ccccc3[nH]c2c2c1[nH]c1cc(Cl)ccc12` has an IC50 [1] of 8.4 µM and an IC50 [2] of 5.7 µM.
With `O=C(NCCN1CCCC1)c1cc2c3ccccc3[nH]c2c2c1[nH]c1ccccc12` the IC50 [1] was 3.11 µM and the IC50 [2] was 1.41 µM.
With `O=C(NCCN1CCCCC1)c1cc2c3ccccc3[nH]c2c2c1[nH]c1ccccc12` the IC50 [1] was 3.27 µM and the IC50 [2] was 1.72 µM.
For `O=C(NCCN1CCCC1)c1cc2c3ccccc3[nH]c2c2c1[nH]c1ccc(Br)cc12`, the IC50 [1] was 1.3 µM and the IC50 [2] was 1.82 µM.
